In the first experiment the test system is Aβ42. Kind of experiment: cell-based moderate throughput Aβ42 ELISA in SH-SY5Y-APP cells. Particulars: Homo sapiens, SH-SY5Y, human SHSY5Y neuroblastoma cells stably overexpressing human APP, Aβ42 secreted into media. On the procedure: A variety of cell lines normally produce and secrete various Aβ peptide alloforms into the media upon culture in supportive media. Examples of cell lines routinely used to assess the ability of a compound to inhibit formation specific Aβ peptide alloforms such as Aβ42, upon treatment of the cells with various concentrations of the compound for approximately 16 h followed by determining the concentration of the various Aβ peptide alloforms in the media both with and without treatment with the compound [(e.g., HEK-293, N2a delta E9/Swe, SHSY5Y and primary cerebral cortical neuronal cultures from embryonic day 18 (E18) embryos from timed pregnant WT Sprague-Dawley rats) (Netzer, W I et al., Gleevec inhibits β-amyloid production but not Notch cleavage. See e.g., Proc. Natl. Acad. Sci. U.S.A. 2003; 100:12444-12449.
The SH-SY5Y-APP human cell line was derived by transfecting a human neuroblastoma (SH-SY5Y) cell line with a plasmid expressing wild type human APP751 cDNA and selecting for stable expression of human APP and human Aβ. In each case, the levels of Aβ42 or Aβtotal or Aβ38 peptides secreted into the media of these cells were measured using either two-site monoclonal antibody (mAb)-based sandwich ELISA assays (described herein for Aβ42 and Aβtotal) or in the case of Aβ38 EC50's, using either the Meso Scale Aβ38, 40, 42 triplex kit along with the Meso Scale Sector Imager 6000 according to the manufacturer's protocols. This SH-SY5Y-APP human cell line was used for all cell-based Aβ peptide immunochemical assays.
SH-SY5Y-APP cells were plated at 75,000 cells/well in 96-well tissue culture plates. After 16-18 h, the culture medium was replaced with fresh medium containing either compound or vehicle. Replicates of 3 wells per test concentration were used, with 10 concentrations at ½ log step intervals. Vehicle (0.12% DMSO) is included as a control.
Compounds disclosed herein were synthesized and assayed for biological activity (EC50) in a cell-based moderate throughput Aβ42 ELISA that utilizes human SHSY5Y neuroblastoma cells stably overexpressing human […] wild-type, as known in the art.
Regarding `COc1nc(-c2csc(N3CC(O)Cn4nc5c(c43)CCC5)n2)ccc1-n1cnc(C)c1` (stereo not drawn) [15495 A], the IC50 came to 53 nM. This lies in the double-digit nanomolar range.
For the compound `CCn1nc2c(c1Nc1nc(-c3ccc(-n4cnc(C)c4)c(OC)n3)cs1)CCCC2` [Cmpd 003077], the IC50 turned out to be 56 nM.
On the same count and under the same terms, as for `CCn1nc2c(c1Nc1nc(-c3ccc(-n4cnc(C)c4)c(OC)n3)cs1)CCC2` [Cmpd 003783], the figure is 33 nM; as for `COc1nc(-c2csc(Nc3c4c(nn3C(C)(C)C)CCCC4)n2)cnc1-n1cnc(C)c1` [Cmpd 004019], 71 nM.
Turning to `CCn1nc(C(F)(F)F)cc1Nc1nc(-c2ccc(-n3cnc(C)c3)c(OC)n2)cs1` [Cmpd 004102], the midpoint of inhibition, the IC50, lay at 57 nM.
The compound `COc1nc(-c2csc(Nc3c4c(nn3C)CCC4)n2)ccc1-n1cnc(C)c1` [Cmpd 004346] showed an IC50 of 77 nM.
In the case of `CCn1nc2c(c1Nc1nc(-c3ccc(-n4cnc(C)c4)c(OC)n3)cs1)CCC2(C)C` [Cmpd 004365], the IC50 came out at 38 nM.
Turning to `COc1nc(-c2csc(Nc3c4c(nn3CC(F)(F)F)CCC4)n2)ccc1-n1cnc(C)c1` [Cmpd 004723], the midpoint of inhibition, the IC50, lay at 35 nM.
Consider `CCn1nc(C2(C)CC2)cc1Nc1nc(-c2ccc(-n3cnc(C)c3)c(OC)n2)cs1` [Cmpd 13563], for which the IC50 stood at 24 nM. The IC50 values of the last two compounds are within 1.5-fold of each other.
Turning to `COc1nc(-c2csc(N3CCCn4nc5c(c43)CCCC5)n2)ccc1-n1cnc(C)c1` [Cmpd 13636], the concentration for half-maximal inhibition (IC50) is 6 nM. Compared with the last compound, the IC50 is about 4-fold lower.
For `COc1nc(-c2csc(Nc3c4c(nn3CC(C)(C)O)CCCC4)n2)ccc1-n1cnc(C)c1` [Cmpd 13674], the IC50 worked out at 20 nM.
In the case of `COc1nc(-c2csc(Nc3c4c(nn3CCF)CCCC4)n2)ccc1-n1cnc(C)c1` [Cmpd 13680], the IC50 was determined as 17 nM.
Compound `CCn1nc2c(c1Nc1nc(-c3ccc(-n4cnc(C)c4)c(OC)n3)c(CO)s1)CCCC2` [Cmpd 13765] registered an IC50 of 35 nM.
`COc1nc(-c2csc(Nc3cc(C4(C)CC4)nn3C)n2)ccc1-n1cnc(C)c1` [Cmpd 13886] gave an IC50 of 75 nM.
As for `COc1nc(-c2csc(Nc3cc(C4(C(F)(F)F)CC4)nn3C)n2)ccc1-n1cnc(C)c1` [Cmpd 13887], the IC50 was found to be 11 nM.
In turn, `COc1nc(-c2csc(Nc3cc(C4(C)CC4)nn3CC(F)(F)F)n2)ccc1-n1cnc(C)c1` [Cmpd 13921] yielded an IC50 of 27 nM.
With `COc1nc(-c2csc(Nc3cc(C4(C)CC4)nn3CCF)n2)ccc1-n1cnc(C)c1` [Cmpd 13922], the IC50 turned out to be 67 nM.
In the case of `COc1nc(-c2csc(N3CCCn4nc5c(c43)CCC5)n2)ccc1-n1cnc(C)c1` [Cmpd 14035], 19 nM corresponded to half-maximal inhibition (IC50).
In turn, `COc1nc(-c2csc(Nc3c4c(nn3CC(C)(C)O)CCC4)n2)ccc1-n1cnc(C)c1` [Cmpd 14104] registered an IC50 of 39 nM.
In the case of `COc1nc(-c2csc(Nc3c4c(nn3CCF)CCC4)n2)ccc1-n1cnc(C)c1` [Cmpd 14106], 64 nM corresponded to half-maximal inhibition (IC50).
`CCn1nc2c(c1Nc1nc(-c3cnc(-n4cnc(C)c4)c(OC)n3)cs1)CCCC2` [Cmpd 14257] gave an IC50 of 89 nM.
Compound `CCn1nc2c(c1Nc1nc(-c3ccc(-n4cnc(C)c4)c(OC)n3)c(CN(C)C)s1)CCCC2` [Cmpd 14508] gave an IC50 of 85 nM.
For `CCn1nc2c(c1Nc1nc(-c3ccc(-n4cnc(C)c4)c(OC)n3)c(CN3CCN(C)CC3)s1)CCCC2` [Cmpd 14548], inhibition was half-maximal at 98 nM (IC50).
As for `COc1nc(-c2csc(N3CC(F)Cn4nc5c(c43)CCCC5)n2)ccc1-n1cnc(C)c1` (stereo not drawn) [Cmpd 14676], the IC50 was found to be 10 nM.
Same read-out and setting: as for `CCn1nc2c(c1Nc1csc(-c3ccc(-n4cnc(C)c4)c(OC)n3)n1)CCCC2` [Cmpd 14777], the figure is 22 nM; as for `COc1nc(-c2csc(N3CC(N4C(=O)CCC4=O)Cn4nc5c(c43)CCCC5)n2)ccc1-n1cnc(C)c1` (stereo not drawn) [Cmpd 14780], 67 nM.
On to `COc1nc(-c2csc(N3C/C(=N\O)Cn4nc5c(c43)CCC5)n2)ccc1-n1cnc(C)c1` [Cmpd 14839], for which 57 nM corresponded to half-maximal inhibition (IC50).
In the case of `COc1nc(-c2csc(N3CC(N(C)C)Cn4nc5c(c43)CCCC5)n2)ccc1-n1cnc(C)c1` (stereo not drawn) [Cmpd 14885], the IC50 stood at 59 nM.
Regarding `C=C1CN(c2nc(-c3ccc(-n4cnc(C)c4)c(OC)n3)cs2)c2c3c(nn2C1)CCCC3` [Cmpd 14945], the IC50 turned out to be 35 nM.
Take `COc1nc(-c2csc(N3CC(N4CCCC4)Cn4nc5c(c43)CCCC5)n2)ccc1-n1cnc(C)c1` (stereo not drawn) [Cmpd 14946]: the IC50 was determined as 19 nM. Against the preceding compound, the IC50 is about 1.8-fold lower.
Turning to `COc1nc(-c2csc(N3CC(O)(CO)Cn4nc5c(c43)CCCC5)n2)ccc1-n1cnc(C)c1` (stereo not drawn) [Cmpd 15001], it took 34 nM to reach half-maximal inhibition (IC50).
On the same count and under the same terms, then `COc1nc(-c2csc(N3CCC(C(C)(C)O)n4nc5c(c43)CCCC5)n2)ccc1-n1cnc(C)c1` (stereo not drawn) [Cmpd 15002], with 65 nM; and `COc1nc(-c2nc(Nc3c4c(nn3CCF)CCCC4)sc2CN2CCN(C)CC2)ccc1-n1cnc(C)c1` [Cmpd 15003], with 50 nM; and `COc1nc(-c2csc(N3C/C(=N\O)Cn4nc5c(c43)CCCC5)n2)ccc1-n1cnc(C)c1` [Cmpd 15004], with 55 nM.
Still for that read-out and setting: then `CO/N=C1\CN(c2nc(-c3ccc(-n4cnc(C)c4)c(OC)n3)cs2)c2c3c(nn2C1)CCCC3` [Cmpd 15188], with 76 nM; and `COc1nc(-c2nc(Nc3c4c(nn3CCF)CCCC4)sc2CN2CCC(F)(F)C2)ccc1-n1cnc(C)c1` [Cmpd 15473], with 99 nM; and `CCn1nc(C2(C)CC2)cc1Nc1csc(-c2ccc(-n3cnc(C)c3)c(OC)n2)n1` [Cmpd 15587], with 14 nM.
`COc1nc(-c2nc(N3CCCn4nc5c(c43)CCCC5)cs2)ccc1-n1cnc(C)c1` [Cmpd 15635] registered an IC50 of 7 nM.
In turn, `COc1nc(-c2nc(N3CCCn4nc(C5(C)CC5)cc43)cs2)ccc1-n1cnc(C)c1` [Cmpd 15666] displayed an IC50 of 18 nM.
`COc1nc(-c2nc(N3CCCn4nc5c(c43)CCC5)cs2)ccc1-n1cnc(C)c1` [Cmpd 15669] showed an IC50 of 5 nM.
Regarding `COc1nc(-c2nc(N3CC(C)Cn4nc5c(c43)CCC5)cs2)ccc1-n1cnc(C)c1` (stereo not drawn) [Cmpd 15670], the IC50 came out at 16 nM.
With `COc1nc(-c2nc(Nc3c4c(nn3CCF)CCCC4)cs2)ccc1-n1cnc(C)c1` [Cmpd 15717], half-maximal inhibition (IC50) required 48 nM.
`COc1nc(-c2nc(Nc3cc(C4(C)CC4)nn3CCF)cs2)ccc1-n1cnc(C)c1` [Cmpd 15746] displayed an IC50 of 56 nM.
For the compound `COc1nc(-c2nc(N3CC(C)Cn4nc5c(c43)CCCC5)cs2)ccc1-n1cnc(C)c1` (stereo not drawn) [Cmpd 15830], the IC50 is 12 nM.
The compound `COc1nc(-c2nc(N3CC(C)Cn4nc(C5(C)CC5)cc43)cs2)ccc1-n1cnc(C)c1` (stereo not drawn) [Cmpd 15868] showed an IC50 of 30 nM.
Same read-out and setting: as for `COc1nc(-c2nc(N3CCCn4nc5c(c43)CCCC5)ns2)ccc1-n1cnc(C)c1` [Cmpd 16211], the figure is 41 nM.

The experiment is the same for the next values; noted with them: human SHSY5Y neuroblastoma cells stably overexpressing human APP, Aβ42 secreted into media.
As for `COc1nc(-c2csc(N3CC(O)Cn4nc5c(c43)CCCC5)n2)ccc1-n1cnc(C)c1` (stereo not drawn) [14789 A], the IC50 was 5 nM.
On the same count and under the same terms, as for `COc1nc(-c2csc(N3CC(O)Cn4nc5c(c43)CCCC5)n2)ccc1-n1cnc(C)c1` (stereo not drawn) [14789 B], the figure is 30 nM; as for `COc1nc(-c2csc(N3CC(O)Cn4nc5c(c43)CCC5)n2)ccc1-n1cnc(C)c1` (stereo not drawn) [15496 B], 33 nM; as for `COc1nc(-c2csc(N3CC(O)Cn4nc5c(c43)CCC5)n2)ccc1-n1cnc(C)c1` (stereo not drawn) [Cmpd 14200], 44 nM.
Same read-out and setting: then `COc1nc(-c2csc(N3CC(O)Cn4nc5c(c43)CCCC5)n2)ccc1-n1cnc(C)c1` (stereo not drawn) [Cmpd 14507], with 17 nM.
